Results published in ChEMBL document CHEMBL3885861, “Open TG-GATES”.

Organism: Rattus norvegicus
Assay: Open TG-GATES - Regimen: Single
Assay type: toxicity, organism-based, Sprague-Dawley
Parameters: regimen Single, gender Male, age 6 weeks
Conditions: in vivo, po, 20 mg/kg, route gavage, dose level Middle; for Eos / Fbg / Hb / Ht / Lym / MCH / MCHC / MCV / Mono / Neu / PT / Plat / RBC / WBC / APTT / Bas: tissue Blood; for KIDNEY_L / KIDNEY_R / KIDNEY_TOTAL: tissue Kidney; for LIVER: tissue Liver; for ALT / AST / BUN / CRE / Cl / DBIL / GLC / IP / LDH / Na / RALB / TBIL / TC / TG / TP / gamma-GTP: tissue Plasma

## CC/C(=C(\c1ccccc1)c1ccc(OCCN(C)C)cc1)c1ccccc1 [TAMOXIFEN]
3 h
  Eos: 1%
  Fbg: 267 mg/dL
  Hb: 13 g/dL
  Ht: 39.3%
  Lym: 78%
  MCH: 21 pg
  MCHC: 33%
  MCV: 63.8 fL
  Mono: 4.2%
  Neu: 16.6%
  PT: 12.1 s
  Plat: 116.7 x10_4/uL
  RBC: 616 x10_4/ul
  WBC: 103.9 x10_2/uL
  KIDNEY_L: 0.8 g
  KIDNEY_R: 0.8 g
  KIDNEY_TOTAL: 1.6 g
  LIVER: 8.4 g
  ALT: 51 IU/L
  AST: 81.2 IU/L
  BUN: 10.4 mg/dL
  CRE: 0.2 mg/dL
  Cl: 106.6 meq/L
  DBIL: 0.016 mg/dL
  GLC: 178.8 mg/dL
  IP: 9.8 mg/dL
  LDH: 56 IU/L
  Na: 140 meq/L
  RALB: 2.6 g/dL
  TBIL: 0.052 mg/dL
  TC: 91.8 mg/dL
  TG: 86 mg/dL
  TP: 5.5 g/dL
  gamma-GTP: 1.2 IU/L
6 h
  TERMINAL_BW: 192.3 g
  APTT: 18.2 s
  Bas: 0%
  Eos: 1.2%
  Fbg: 269.4 mg/dL
  Hb: 13.2 g/dL
  Ht: 39.4%
  Lym: 73.8%
  MCH: 21.3 pg
  MCHC: 33.5%
  MCV: 63.7 fL
  Mono: 4.2%
  Neu: 20.4%
  PT: 12.1 s
  Plat: 107 x10_4/uL
  RBC: 618.2 x10_4/ul
  WBC: 64.9 x10_2/uL
  KIDNEY_L: 0.8 g
  KIDNEY_R: 0.8 g
  KIDNEY_TOTAL: 1.6 g
  LIVER: 7.7 g
  ALT: 43.4 IU/L
  AST: 82.8 IU/L
  BUN: 8 mg/dL
  CRE: 0.2 mg/dL
  Cl: 109 meq/L
  DBIL: 0.008 mg/dL
  GLC: 175.8 mg/dL
  IP: 10.7 mg/dL
  LDH: 92.4 IU/L
  Na: 141.8 meq/L
  RALB: 2.6 g/dL
  TBIL: 0.048 mg/dL
  TC: 82.2 mg/dL
  TG: 45.4 mg/dL
  TP: 5.4 g/dL
  gamma-GTP: 1.4 IU/L
9 h
  TERMINAL_BW: 194.8 g
  APTT: 16.1 s
  Bas: 0%
  Eos: 1%
  Fbg: 252.6 mg/dL
  Hb: 12.7 g/dL
  Ht: 38%
  Lym: 74.4%
  MCH: 21.6 pg
  MCHC: 33.3%
  MCV: 64.9 fL
  Mono: 2.8%
  Neu: 21.6%
  PT: 12.4 s
  Plat: 114.1 x10_4/uL
  RBC: 585.4 x10_4/ul
  WBC: 73.4 x10_2/uL
  KIDNEY_L: 0.8 g
  KIDNEY_R: 0.8 g
  KIDNEY_TOTAL: 1.7 g
  LIVER: 7.1 g
  ALT: 40 IU/L
  AST: 75.8 IU/L
  BUN: 8.6 mg/dL
  CRE: 0.2 mg/dL
  Cl: 107.6 meq/L
  DBIL: 0.008 mg/dL
  GLC: 178.8 mg/dL
  IP: 11 mg/dL
  LDH: 46 IU/L
  Na: 141.4 meq/L
  RALB: 2.4 g/dL
  TBIL: 0.042 mg/dL
  TC: 61.8 mg/dL
  TG: 35.4 mg/dL
  TP: 5.1 g/dL
  gamma-GTP: 1 IU/L
24 h
  TERMINAL_BW: 194.8 g
  APTT: 16.8 s
  Bas: 0%
  Eos: 1.2%
  Fbg: 232.8 mg/dL
  Hb: 12.7 g/dL
  Ht: 38.5%
  Lym: 79%
  MCH: 21.3 pg
  MCHC: 33%
  MCV: 64.5 fL
  Mono: 2.4%
  Neu: 17.2%
  PT: 12.8 s
  Plat: 117 x10_4/uL
  RBC: 597.6 x10_4/ul
  WBC: 83.2 x10_2/uL
  KIDNEY_L: 0.9 g
  KIDNEY_R: 0.9 g
  KIDNEY_TOTAL: 1.8 g
  LIVER: 8.7 g
  ALT: 52.2 IU/L
  AST: 79.2 IU/L
  BUN: 13 mg/dL
  CRE: 0.2 mg/dL
  Cl: 109.6 meq/L
  DBIL: 0.016 mg/dL
  GLC: 186 mg/dL
  IP: 8.3 mg/dL
  LDH: 64 IU/L
  Na: 143.2 meq/L
  RALB: 2.6 g/dL
  TBIL: 0.038 mg/dL
  TC: 60.2 mg/dL
  TG: 84.6 mg/dL
  TP: 5.4 g/dL
  gamma-GTP: 1.4 IU/L
